Converted amounts (≈) assume the structure as drawn.
Key:
[1] = test system: Edwardsiella tarda; test: Proliferation inhibition of pathogenic bacteria in BHI broth (620 nm); assay type: cell-based; conditions: product on the market (Sigma)
Description: (§1) Pathogenic index bacteria used in this experiment are Edwardsiella tard, Streptococcus sp., Staphylococcus sp., Staphylococcus epidermidis, Pseudomonas sp., Vibrio anguillarum which are collected from the marine fish farm nearby Yeosu. In solid culture, they were cultured in TSA (tryptic soy agar) supplemented with 0.2% NaCl flat media and in liquid culture, they were prepared by culturing in BHI broth for 24 hrs and setting the O.D. value as 1.0. δ-aminolevulinic acid used in this experiment were one on the market (Sigma) and one formulated by inventors of the present invention (Korean patent application No. 1998-41898). Each 0.167 g δ-aminolevulinic acid were dissolved in 1.0 mL sterilized distilled water was used as undiluted solution. 1.0 M δ-aminolevulinic acid was 2-fold diluted with BHI broth by stages up to 64-fold and prepared for test solution to examine pathogenic bacteria proliferation-prohibiting effect. […] In control group, instead of δ-aminolevulinic acid, BHI broth bacteria suspension were mixed with (1:1) and then observed with the same method above. MIC assay by δ-aminolevulinic acid for major pathogenic bacteria of marine cultivating fishes, Edwardsiella tard, Streptococcus sp., Staphylococcus sp., Staphylococcus epidermidis, Pseudomonas sp., Vibrio anguillarum was carried out by flat drug disc method. 100 μL of each bacteria in a culture solution was mixed with fixed amount of top agar and coated to TSA agar. 1.0 M δ-aminolevulinic acid solution was diluted by 2 folds in PBS and 10 μL of each dilution were absorbed to sterilized disc. After incubation at 23˜25° C. for 2˜3 days, antibacterial effect was indicated by measuring the size (mm) of clear zone. In control group, PBS was absorbed into disc instead of δ-aminolevulinic acid dilution solution with the same amount and observed. From the result of this experiment using δ-aminolevulinic acid on the market, proliferation-inhibiting effects of pathogenic bacteria according to δ-aminolevulinic acid concentration are shown in Table 2a (Edwardsiella tard) and Table 2b (Streptococcus sp.). Below 1/32 fold (31 mM) of δ-aminolevulinic acid dilution rate, proliferation of both bacteria was inhibited. […] The experimental result of δ-aminolevulinic acid prepared by the inventors has shown in Table 3 and no difference in effects from δ-aminolevulinic acid on the market.

[2] = test system: Streptococcus sp.; test: as above; assay type: cell-based; conditions: product on the market (Sigma)
Description: as §1

[3] = test system: Edwardsiella tarda; test: MIC assay by flat drug disc method; assay type: cell-based; conditions: prepared by the inventors
Description: as §1

[4] = test system: Pseudomonas sp.; test: MIC assay by flat drug disc method; assay type: cell-based; conditions: prepared by the inventors
Description: as §1

[5] = test system: Staphylococcus epidermidis; test: MIC assay by flat drug disc method; assay type: cell-based; conditions: prepared by the inventors
Description: as §1

[6] = test system: Staphylococcus sp.; test: MIC assay by flat drug disc method; assay type: cell-based; conditions: Staphylococcus sp. (second of two lines); prepared by the inventors
Description: as §1

[7] = test system: Streptococcus sp.; test: MIC assay by flat drug disc method; assay type: cell-based; conditions: line printed Staphylococcus sp. (first of two), prepared by the inventors
Description: as §1

[8] = test system: Vibrio anguillarum; test: MIC assay by flat drug disc method; assay type: cell-based; conditions: prepared by the inventors
Description: as §1

[9] = test system: Staphylococcus sp.; test: Prevention effect for artificial infection (abdominal injection of bacteria); assay type: in vivo, Sebastes schlegeli; conditions: for Mortality during Cultivation: dead of 20 fish
Description: The water temperature was maintained at 20° C. (±2° C. ) throughout the experiment. […]
Bastardhalibut and Sebastes schlegeli were infected by Staphylococcus sp. by abdominal injection with the same method of fish breeding δ-aminolevulinic acid treatment and artificial infection carried out in Experiment 1 and 2. Each experimental fish was moved to fish tanks for monitoring and monitored for mortality according to infection for 2 weeks.

[10] = test system: Edwardsiella tarda; test: Treatment effect of infected fry by digestion in breeding water; assay type: in vivo, Bastardhalibut; conditions: 50 fish
Description: (§2) To be used as experimental fish in this example, fry of Bastardhalibut and Sebastes schlegeli (mean body weight 2 g), 50 per each breeding tank, were preliminary-bred for 1 week and stabilized. […] The artificial infection methods were carried out by the digestion method. Pathogenic organisms were applied into fish tanks and digested in seawater, wherein the concentration of organisms has adjusted to 10^4 CFU/mL for an hour, and infected. Treatment conditions are as follows. After artificial infection. Infected fishes were moved to fish tanks and kept in the infection period for 3 days. On the fourth day of infection, 0.1, 1.0, 5 and 10 ppm δ-aminolevulinic acid were introduced to use as breeding water. Fish was bred in aerobic condition for 1˜24 hours without exchanging water and then, bred for 2 weeks after exchanging with clean seawater. Then, they were monitored to check for the mortality of fish according to infection. In the control groups, after each bacteria were identically introduced through the digestion method, mortality of Bastardhalibut and Sebastes schlegeli according to bacteria infection was identified while breeding with non-treated condition of δ-aminolevulinic acid. As a result of this experiment, δ-aminolevulinic acid-treated groups have shown high viability in both Bastardhalibut (Table 12˜Table 15) and Sebastes schlegeli (Table 16˜Table 19).

[11] = test system: Pseudomonas sp.; test: as above; assay type: in vivo, Bastardhalibut; conditions: 50 fish
Description: as §2

[12] = test system: Staphylococcus epidermis; test: as above; assay type: in vivo, Bastardhalibut; conditions: 50 fish
Description: as §2

[13] = test system: Staphylococcus sp.; test: as above; assay type: in vivo, Bastardhalibut; conditions: 50 fish
Description: as §2

[14] = test system: Streptococcus sp.; test: as above; assay type: in vivo, Bastardhalibut; conditions: 50 fish
Description: as §2

[15] = test system: Vibrio anguillarum; test: as above; assay type: in vivo, Bastardhalibut; conditions: 50 fish
Description: as §2

[16] = above 1/64 fold (16 mM) dilution rate
[17] = below 1/32 fold (31 mM) dilution rate, 24 hrs, 25° C.
[18] = digestion 0.1 ppm from 4th day of infection, Bastard halibut fry
[19] = digestion 1.0 ppm from 4th day of infection, Bastardhalibut fry
[20] = digestion 5.0 ppm from 4th day of infection, in Bastard halibut
[21] = digestion 10 ppm from 4th day of infection, Bastardhalibut fry
[22] = digestion 10 ppm from 4th day of infection
[23] = digestion 5.0 ppm from 4th day of infection

`NCC(=O)CCC(=O)O` [δ-aminolevulinic acid] was tested. Which proliferation of bacteria [1, 16] did it give?
Its proliferation of bacteria is “no significant difference from the control group”.

What about the proliferation of bacteria [1, 17] of the same compound?
The proliferation of bacteria was “inhibited”.

And the proliferation of bacteria [2, 16]?
Its proliferation of bacteria is “no significant difference from the control group”.

What about the proliferation of bacteria [2, 17] of the same compound?
The proliferation of bacteria was “inhibited”.

And the MIC [3]?
Its MIC is 56 µg/mL (≈ 427 µM).

What about the MIC [4] of the same compound?
The MIC was 42.2 µg/mL (≈ 322 µM).

What about the MIC [5] of the same compound?
Its MIC is 62 µg/mL (≈ 473 µM).

What about the MIC [6] of the same compound?
The MIC was 59.6 µg/mL (≈ 455 µM).

And the MIC [7]?
Its MIC is 72.9 µg/mL (≈ 556 µM).

And the MIC [8]?
Its MIC is 29.9 µg/mL (≈ 228 µM).

What about the Viability ([9]; orally, 0.1 ppm in feed) of the same compound?
The Viability was 50%.

And the “Mortality during Cultivation” value ([9]; orally, 0.1 ppm in feed)?
Its value is 10.

What about the Viability ([9]; orally, 1.0 ppm in feed) of the same compound?
The Viability was 55%.

What about the “Mortality during Cultivation” value ([9]; orally, 1.0 ppm in feed) of the same compound?
Its value is 9.

What about the Viability ([9]; orally, 10 ppm in feed) of the same compound?
Its Viability is 90%.

What about the “Mortality during Cultivation” value ([9]; orally, 10 ppm in feed) of the same compound?
Its value is 2.

What about the Viability ([9]; orally, 100 ppm in feed) of the same compound?
Its Viability is 90%.

What about the “Mortality during Cultivation” value ([9]; orally, 100 ppm in feed) of the same compound?
The value was 2.

And the Viability ([9]; to fish tanks, 0.01 ppm)?
The Viability was 60%.

What about the “Mortality during Cultivation” value ([9]; to fish tanks, 0.01 ppm) of the same compound?
Its value is 8.

And the Viability ([9]; to fish tanks, 0.1 ppm)?
The Viability was 65%.

And the “Mortality during Cultivation” value ([9]; to fish tanks, 0.1 ppm)?
Its value is 7.

What about the Viability ([9]; to fish tanks, 1.0 ppm) of the same compound?
The Viability was 95%.

And the “Mortality during Cultivation” value ([9]; to fish tanks, 1.0 ppm)?
Its value is 1.

And the Viability ([9]; to fish tanks, 10 ppm)?
Its Viability is 90%.

What about the “Mortality during Cultivation” value ([9]; to fish tanks, 10 ppm) of the same compound?
The value was 2.

What about the Viability [10, 18] of the same compound?
The Viability was 54%.

What about the Viability [10, 19] of the same compound?
The Viability was 76%.

And the Viability [10, 20]?
Its Viability is 86%.

What about the Viability [10, 21] of the same compound?
Its Viability is 84%.

What about the Viability [11, 18] of the same compound?
The Viability was 50%.

What about the Viability [11, 19] of the same compound?
Its Viability is 70%.

What about the Viability [11, 20] of the same compound?
Its Viability is 80%.

What about the Viability [11, 22] of the same compound?
Its Viability is 84%.

And the Viability [12, 18]?
Its Viability is 42%.

And the Viability [12, 19]?
The Viability was 66%.

And the Viability [12, 20]?
The Viability was 80%.

And the Viability [12, 22]?
Its Viability is 84%.

And the Viability [13, 18]?
The Viability was 54%.

And the Viability [13, 19]?
The Viability was 66%.

And the Viability [13, 23]?
Its Viability is 84%.

And the Viability [13, 21]?
Its Viability is 84%.

What about the Viability [14, 18] of the same compound?
Its Viability is 46%.

What about the Viability [14, 19] of the same compound?
The Viability was 64%.

And the Viability [14, 20]?
Its Viability is 84%.

And the Viability [14, 21]?
Its Viability is 90%.

And the Viability [15, 18]?
The Viability was 56%.

What about the Viability [15, 19] of the same compound?
Its Viability is 66%.

What about the Viability [15, 23] of the same compound?
Its Viability is 84%.

And the Viability [15, 21]?
The Viability was 80%.

Reference: patent publication US20010053796A1, “Delta-aminolevulinic acid for prevention and treatment of infection microorganisms and parasite” (priority 2000, published 2001)
